Tests used:
[1] = system: ATF4 mRNA; assay: qRT-PCR of ATF4 mRNA in INS-1 cells; type: cell-based, rat
Protocol: (§1) (A, B) INS-1 cells were treated with or without Tm (0.1 μg/mL) in the presence of 13d or DMSO for 8 h. ATF4 (A) and CHOP (B) mRNA levels were analyzed by qRT-PCR. Relative mRNA levels were normalized against the housekeeping gene Cyclophilin A using the comparative CT method. The results were expressed as the fold-increase over mRNA levels in untreated control cells and are the means of 3 replicate wells and representative of 3 independent experiments. ** P<0.01 compared with Tm treatment alone. Bar indicates SD. (C-E) INS-1 cells were treated with or without Tm (0.1 μg/mL) in the presence of 13d or DMSO for 8 hATF4 and CHOP protein levels were determined by Western blotting (C). α-Tubulin was used as an internal control. Quantification of ATF4 (D) and CHOP (E) protein levels was analyzed by ImageJ program, which was normalized by α-Tubulin protein level. The data shown are representative of 3 independent experiments.
Having established that compound 13d restores ER stress-impaired β-cell survival and function, we next investigated the mechanism of action by which 13d protects β-cells against ER stress. Chronic or severe ER stress activates all three branches of the UPR, PERK, IRE1α, and ATF6, leading to eventual cell death. First, we determined the effect of 13d on the activation of the PERK pathway in β-cells under ER stress. […]

[2] = system: Bip mRNA; assay: qRT-PCR of Bip mRNA in Tm-treated INS-1 cells; type: cell-based, rat; settings: Tm 0.1 μg/mL co-treatment, 8 h
Protocol: INS-1 cells were treated with or without Tm (0.1 μg/mL) in the presence of 13d or DMSO for 8 h. Bip (A) and GRP94 (B) mRNA levels were analyzed by qRT-PCR. Relative mRNA levels were normalized against the housekeeping gene Cyclophilin A using the comparative CT method. The results are the means of 3 replicate wells and representative of 3 independent experiments. ** P<0.01 compared with Tm treatment alone. Error bars indicate SD.
We then investigated the effects of 13d on the activation of ATF6 in β-cells under ER stress. Activated ATF6 acts as a homodimer or as an ATF6-XBP1s heterodimer to control the up-regulation of select UPR target genes including the chaperone proteins BiP and GRP94. Therefore, these two chaperone proteins were evaluated in the INS-1 cells in the presence of Tm.
INS-1 cells were seeded at 4×10^5 cells/well in 6-well plates and treated with compounds for the indicated times. Total RNA was extracted using TRIzol reagent (Invitrogen, Carlsbad, Calif.) according to the manufacturer's protocol, and 2 μg of total RNA was reverse transcribed using a Superscript kit (Invitrogen). […] Relative mRNA levels were normalized against the housekeeping gene Cyclophilin A and were determined by ΔΔCt calculated from the difference in ΔCt values between the target gene and Cyclophilin A with and without treatment, based on comparative CT (cycle threshold) method. […]

[3] = system: STZ-induced diabetic mouse model; assay: Streptozotocin (STZ)-induced diabetic mouse model; type: in vivo, C57BL/6 mice
Protocol: (A) Fasting blood glucose levels were measured in STZ-injected mice treated with vehicle control (n=6) or 13d (n=7). C57BL/6J mice were injected intraperitoneally once daily for 5 days with STZ (50 mg/kg body weight) and with either vehicle (n=6 mice) or 13d (5 mg/kg body weight; n=7 mice). Injections of vehicle or 13d alone were then continued for 2 more weeks. (B) Glucose tolerance test. Blood glucose levels measured at indicated time points after intraperitoneal injection of glucose (2 g/kg body weight). (C) Pancreases were sectioned and slides were stained with anti-insulin antibody (green, β-cell marker), anti-glucagon antibody (red, α-cell marker), and DAPI (blue). Slides were imaged with an Olympus FV1000 confocal microscope. Representative images are shown in (C). (D) Quantification of total islet area per section and β-cell number per islet. Total area of all islets per section calculated for a total of six sections using insulin-positive cells to demarcate islets. Data are the means±SEM of six sections from three mice. *p<0.05 **p<0.01, and ***p<0.001 by Student's t-test.
We next evaluated the in vivo efficacy of 13d using a streptozotocin (STZ)-induced diabetic mouse model. STZ induces ER stress in β-cells in addition to the increase in reactive oxygen species (ROS) production and DNA alkylation. C57BL/6 mice injected intraperitoneally with low dose STZ (50 mg/kg) once daily for 5 consecutive days develop diabetes; blood glucose levels increased gradually within a week of STZ treatment.
All procedures involving animals were performed in accordance with the protocol approved by the University of Oklahoma Health Science Center Institutional Animal Care and Use Committee (IACUC). C57BL/6 mice were obtained from The Jackson Laboratory (Bar Harbor, Me.) and maintained on a 12 h light (6:00 AM-6:00 PM)-12 h dark (6:00 PM-6:00 AM) cycle at an ambient temperature of 21° C. Mice were given free access to water and food. All experiments were performed with age-matched male mice. Compounds were dosed during light cycle. For streptozotocin (STZ)-induced diabetic model, ten-week-old C57BL/6 mice were injected intraperitoneally (i.p.) once daily for five days with STZ (dissolved in Na-Citrate Buffer; 50 mg/kg) and either 13d (5 mg/kg body weight; 2 mg/ml in 10% DMSO in saline buffer; n=7 mice) or vehicle (n=6 mice). Injections of vehicle or 13d alone were then continued for 2 more weeks. Every third day, animals were fasted for 5 h and blood was obtained by tail snip. Blood glucose levels were measured using a glucometer (Nova Statstrip Xpress; Data Science International, St. Paul, Minn.). At the end of the treatment period, mice were sacrificed and the pancreases were removed, fixed in formalin, and paraffin-embedded. Tissue blocks were serially sectioned at intervals of 100 μm and 6 sections were stained with an anti-insulin antibody (A0564, 1:500 dilution; Dako), anti-glucagon antibody (G2654, 1:500 dilution; Sigma), and DAPI (0.5 μg/ml). Insulin-positive cells were used to demarcate islets, and the total islet area was measured with an Olympus FV1000 confocal microscopy and quantified with Image-J histogram software.

[4] = system: CHOP mRNA; assay: qRT-PCR of CHOP mRNA in INS-1 cells; type: cell-based, rat
Protocol: as §1
Having established that compound 13d restores ER stress-impaired β-cell survival and function, we next investigated the mechanism of action by which 13d protects β-cells against ER stress. Chronic or severe ER stress activates all three branches of the UPR, PERK, IRE1α, and ATF6, leading to eventual cell death. First, we determined the effect of 13d on the activation of the PERK pathway in β-cells under ER stress. PERK activation phosphorylates eukaryotic translation initiator factor 2α (eIF2α), which in turn allows for the up-regulation of activating transcription factor 4 (ATF4) and of the pro-apoptotic gene C/EBP-homologous protein (CHOP). Thus, we used ATF4 and CHOP expression levels as markers of PERK pathway activation. […]
INS-1 cells were seeded at 4×10^5 cells/well in 6-well plates and treated with compounds for the indicated times. […] Relative mRNA levels were normalized against the housekeeping gene Cyclophilin A and were determined by ΔΔCt calculated from the difference in ΔCt values between the target gene and Cyclophilin A with and without treatment, based on comparative CT (cycle threshold) method. […]

## O=C(NCc1ccc(C(F)(F)F)cc1)c1cccc(CN2CCCCC2)c1 [Compound 13d, N-(4-trifluoromethylphenmethyl)-3-(N-piperidinyl)methyl benzamide]
[1]; Tm 0.1 μg/mL co-treatment, 8 h
  Tm-induced increase in ATF4 mRNA level: almost completely abolished
[1]; without Tm
  effect on ATF4 mRNA level on its own: no effect
[2]
  Tm-induced up-regulation of Bip mRNA: almost completely reversed
[3]; STZ mice, 5 mg/kg
  total pancreatic islet β-cell area compared to vehicle-treated mice: more than double
[3]; STZ mice, 5 mg/kg i.p. once daily, after 3 weeks of treatment
  fasting blood glucose level: 314 mg/dL
[3]; STZ mice, 5 mg/kg, pancreatic sections at end of treatment
  total pancreatic islet β-cell area: 67.4±5.9%
[3]; STZ mice, 5 mg/kg, vehicle vs 13d groups
  average number of α-cells: no obvious effect
[3]; overnight fasted STZ mice, 5 mg/kg, glucose 2 g/kg i.p.
  intraperitoneal glucose tolerance test, blood glucose vs vehicle-treated STZ group: lower blood glucose levels at 15, and 30 min
[4]; Tm 0.1 μg/mL co-treatment, 8 h
  Tm-induced increase in CHOP mRNA level: almost completely abolished
[4]; Tm, 8 h, read-out: IC50 for inhibition of Tm-induced CHOP expression
  IC50: 37 nM
[4]; without Tm
  effect on CHOP mRNA level on its own: no effect
